{"source": "the supplement of paper PMC10307832", "test_in_all_cases": "relative viability (nuclei count vs DMSO), 5 days (fraction); higher = more cells survive", "key": {"[1]": {"test_system": "Calu-6", "how_it_was_run": "(§1)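 One day after seeding in 1536-well plates, lung cancer cell lines were dosed by pin tool. Dosing was either single-drug or a fixed anchor-drug dose plus five library-drug doses (not always all listed) in √10 steps. After 5 days, nuclei were stained in one fix-and-stain step and counted on 4× images, and relative viability is the nuclei count of treated wells over that of vehicle wells, given as the median of duplicate plates.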"}, "[2]": {"test_system": "NCI-H1299", "how_it_was_run": "as §1"}, "[3]": {"test_system": "A549", "how_it_was_run": "as §1"}, "[4]": {"test_system": "NCI-H1703", "how_it_was_run": "as §1"}, "[5]": {"test_system": "IA-LM", "how_it_was_run": "as §1"}, "[6]": {"test_system": "NCI-H2126", "how_it_was_run": "as §1"}, "[7]": {"test_system": "ABC-1", "how_it_was_run": "as §1"}, "[8]": {"test_system": "EBC-1", "how_it_was_run": "as §1"}, "[9]": {"test_system": "EKVX", "how_it_was_run": "as §1"}}, "data": [{"smiles": "NC(=O)Nc1cc(-c2cccc(F)c2)sc1C(=O)N[C@H]1CCCNC1", "note": "[AZD7762] + C[C@@H](Oc1cc(-c2cnn(C3CCNCC3)c2)cnc1N)c1c(Cl)ccc(F)c1Cl [Crizotinib] (partner 1 µM)", "values": [{"measurement": "relative viability", "setting": "[1]; first compound 0.01 µM", "result": 0.897}, {"measurement": "relative viability", "setting": "[1]; first compound 0.03162 µM", "result": 0.813}, {"measurement": "relative viability", "setting": "[1]; first compound 0.1 µM", "result": 0.651}, {"measurement": "relative viability", "setting": "[1]; first compound 0.3162 µM", "result": 0.162}, {"measurement": "relative viability", "setting": "[1]; first compound 1 µM", "result": 0.0886}, {"measurement": "relative viability", "setting": "[2]; first compound 0.01 µM", "result": 0.966}, {"measurement": "relative viability", "setting": "[2]; first compound 0.03162 µM", "result": 0.975}, {"measurement": "relative viability", "setting": "[2]; first compound 0.1 µM", "result": 0.974}, {"measurement": "relative viability", "setting": "[2]; first compound 0.3162 µM", "result": 0.826}, {"measurement": "relative viability", "setting": "[2]; first compound 1 µM", "result": 0.307}, {"measurement": "relative viability", "setting": "[3]; first compound 0.01 µM", "result": 0.795}, {"measurement": "relative viability", "setting": "[3]; first compound 0.03162 µM", "result": 0.821}, {"measurement": "relative viability", "setting": "[3]; first compound 0.1 µM", "result": 0.775}, {"measurement": "relative viability", "setting": "[3]; first compound 0.3162 µM", "result": 0.424}, {"measurement": "relative viability", "setting": "[3]; first compound 1 µM", "result": 0.0696}, {"measurement": "relative viability", "setting": "[4]; first compound 0.01 µM", "result": 0.314}, {"measurement": "relative viability", "setting": "[4]; first compound 0.03162 µM", "result": 0.169}, {"measurement": "relative viability", "setting": "[4]; first compound 0.1 µM", "result": 0.136}, {"measurement": "relative viability", "setting": "[4]; first compound 0.3162 µM", "result": 0.0849}, {"measurement": "relative viability", "setting": "[4]; first compound 1 µM", "result": 0.105}, {"measurement": "relative viability", "setting": "[5]; first compound 0.01 µM", "result": 1.04}, {"measurement": "relative viability", "setting": "[5]; first compound 0.03162 µM", "result": 0.907}, {"measurement": "relative viability", "setting": "[5]; first compound 0.1 µM", "result": 1.26}, {"measurement": "relative viability", "setting": "[5]; first compound 0.3162 µM", "result": 0.858}, {"measurement": "relative viability", "setting": "[5]; first compound 1 µM", "result": 0.277}, {"measurement": "relative viability", "setting": "[6]; first compound 0.01 µM", "result": 1.01}, {"measurement": "relative viability", "setting": "[6]; first compound 0.03162 µM", "result": 1.01}, {"measurement": "relative viability", "setting": "[6]; first compound 0.1 µM", "result": 1.12}, {"measurement": "relative viability", "setting": "[6]; first compound 0.3162 µM", "result": 1.04}, {"measurement": "relative viability", "setting": "[6]; first compound 1 µM", "result": 1.05}, {"measurement": "relative viability", "setting": "[7]; first compound 0.01 µM", "result": 1.1}, {"measurement": "relative viability", "setting": "[7]; first compound 0.03162 µM", "result": 1.56}, {"measurement": "relative viability", "setting": "[7]; first compound 0.1 µM", "result": 0.842}, {"measurement": "relative viability", "setting": "[7]; first compound 0.3162 µM", "result": 0.49}, {"measurement": "relative viability", "setting": "[7]; first compound 1 µM", "result": 0.13}, {"measurement": "relative viability", "setting": "[8]; first compound 0.01 µM", "result": 0.199}, {"measurement": "relative viability", "setting": "[8]; first compound 0.03162 µM", "result": 0.209}, {"measurement": "relative viability", "setting": "[8]; first compound 0.1 µM", "result": 0.167}, {"measurement": "relative viability", "setting": "[8]; first compound 0.3162 µM", "result": 0.187}, {"measurement": "relative viability", "setting": "[8]; first compound 1 µM", "result": 0.167}, {"measurement": "relative viability", "setting": "[9]; first compound 0.01 µM", "result": 0.875}, {"measurement": "relative viability", "setting": "[9]; first compound 0.03162 µM", "result": 1.03}, {"measurement": "relative viability", "setting": "[9]; first compound 0.1 µM", "result": 0.874}, {"measurement": "relative viability", "setting": "[9]; first compound 0.3162 µM", "result": 0.798}, {"measurement": "relative viability", "setting": "[9]; first compound 1 µM", "result": 0.412}]}, {"smiles": "NC(=O)Nc1cc(-c2cccc(F)c2)sc1C(=O)N[C@H]1CCCNC1", "note": "[AZD7762] + C[C@]1(O)C[C@@H](c2nc(-c3ccc4ccc(-c5ccccc5)nc4c3)c3c(N)nccn32)C1 [Linsitinib] (partner 1 µM)", "values": [{"measurement": "relative viability", "setting": "[1]; first compound 0.01 µM", "result": 1.02}, {"measurement": "relative viability", "setting": "[1]; first compound 0.03162 µM", "result": 0.964}, {"measurement": "relative viability", "setting": "[1]; first compound 0.1 µM", "result": 0.944}, {"measurement": "relative viability", "setting": "[1]; first compound 0.3162 µM", "result": 0.649}, {"measurement": "relative viability", "setting": "[1]; first compound 1 µM", "result": 0.14}, {"measurement": "relative viability", "setting": "[2]; first compound 0.01 µM", "result": 0.99}, {"measurement": "relative viability", "setting": "[2]; first compound 0.03162 µM", "result": 0.995}, {"measurement": "relative viability", "setting": "[2]; first compound 0.1 µM", "result": 1.04}, {"measurement": "relative viability", "setting": "[2]; first compound 0.3162 µM", "result": 1}, {"measurement": "relative viability", "setting": "[2]; first compound 1 µM", "result": 0.323}, {"measurement": "relative viability", "setting": "[3]; first compound 0.01 µM", "result": 0.564}, {"measurement": "relative viability", "setting": "[3]; first compound 0.03162 µM", "result": 0.577}, {"measurement": "relative viability", "setting": "[3]; first compound 0.1 µM", "result": 0.705}, {"measurement": "relative viability", "setting": "[3]; first compound 0.3162 µM", "result": 0.616}, {"measurement": "relative viability", "setting": "[3]; first compound 1 µM", "result": 0.494}, {"measurement": "relative viability", "setting": "[4]; first compound 0.01 µM", "result": 0.688}, {"measurement": "relative viability", "setting": "[4]; first compound 0.03162 µM", "result": 0.164}, {"measurement": "relative viability", "setting": "[4]; first compound 0.1 µM", "result": 0.181}, {"measurement": "relative viability", "setting": "[4]; first compound 0.3162 µM", "result": 0.164}, {"measurement": "relative viability", "setting": "[4]; first compound 1 µM", "result": 0.177}, {"measurement": "relative viability", "setting": "[5]; first compound 0.01 µM", "result": 0.713}, {"measurement": "relative viability", "setting": "[5]; first compound 0.03162 µM", "result": 0.663}, {"measurement": "relative viability", "setting": "[5]; first compound 0.1 µM", "result": 0.629}, {"measurement": "relative viability", "setting": "[5]; first compound 0.3162 µM", "result": 0.628}, {"measurement": "relative viability", "setting": "[5]; first compound 1 µM", "result": 0.47}, {"measurement": "relative viability", "setting": "[6]; first compound 0.01 µM", "result": 0.711}, {"measurement": "relative viability", "setting": "[6]; first compound 0.03162 µM", "result": 0.758}, {"measurement": "relative viability", "setting": "[6]; first compound 0.1 µM", "result": 0.763}, {"measurement": "relative viability", "setting": "[6]; first compound 0.3162 µM", "result": 0.706}, {"measurement": "relative viability", "setting": "[6]; first compound 1 µM", "result": 0.805}, {"measurement": "relative viability", "setting": "[7]; first compound 0.01 µM", "result": 1.08}, {"measurement": "relative viability", "setting": "[7]; first compound 0.03162 µM", "result": 0.839}, {"measurement": "relative viability", "setting": "[7]; first compound 0.1 µM", "result": 0.925}, {"measurement": "relative viability", "setting": "[7]; first compound 0.3162 µM", "result": 0.409}, {"measurement": "relative viability", "setting": "[7]; first compound 1 µM", "result": 0.278}, {"measurement": "relative viability", "setting": "[8]; first compound 0.01 µM", "result": 1.01}, {"measurement": "relative viability", "setting": "[8]; first compound 0.03162 µM", "result": 0.877}, {"measurement": "relative viability", "setting": "[8]; first compound 0.1 µM", "result": 1.03}, {"measurement": "relative viability", "setting": "[8]; first compound 0.3162 µM", "result": 0.884}, {"measurement": "relative viability", "setting": "[8]; first compound 1 µM", "result": 0.76}, {"measurement": "relative viability", "setting": "[9]; first compound 0.01 µM", "result": 0.972}, {"measurement": "relative viability", "setting": "[9]; first compound 0.03162 µM", "result": 0.971}, {"measurement": "relative viability", "setting": "[9]; first compound 0.1 µM", "result": 0.844}, {"measurement": "relative viability", "setting": "[9]; first compound 0.3162 µM", "result": 0.873}, {"measurement": "relative viability", "setting": "[9]; first compound 1 µM", "result": 0.507}]}]}
